Experimental data as given in patent publication US10233146B2, “Acetylenic cyanoenones as therapeutics for inflammation and carcinogenesis” (THE RESEARCH FOUNDATION FOR THE STATE UNIVERSITY OF NEW YORK, priority 2015, dated 2019).
“And” between values parts separate entries of the source, which are not always exact repeats. Identical values can stand only once. Like-named read-outs stand apart in the source and are kept apart here.

What was measured:
NQO1 = experiment: Induction of NQO1 in Hepa1c1c7 murine hepatoma cells; type: cell-based; conditions: for EC (2-fold NQO1 activity): Hepa1c1c7 cells, 48 h treatment, read-out: NQO1 CD (concentration required to double the specific enzyme activity of NQO1); for magnitude of NQO1 induction at higher concentrations: FIG. 3, concentrations higher than the CD values
Excerpt: In this assay, the concentration required to double (CD value) the specific enzyme activity of NQO1 is used to quantify inducer potency. […] Dinkova-KOstova, A. T. et al. 2012). […] These compounds may be more robust inducers than monocyclic compounds. [table]

[1] = UV study of Michael adduct formation with DTT; type: physicochemical; conditions: for A (absorbance) With DTT (1 equiv) / λmax With DTT (1 equiv) / A (absorbance) With DTT (10 equiv) / λmax With DTT (10 equiv): 0.1 mM compound, phosphate buffer saline-1% ethanol (pH 7.4), rt; for A (absorbance) With DTT (1 equiv) / λmax With DTT (1 equiv): 0.1 mM DTT; for A (absorbance) With DTT (10 equiv) / λmax With DTT (10 equiv): 1 mM DTT; for K (equilibrium constant): 0.1 mM of compound with 0.1 mM of DTT
Procedure: Calculation of Approximate Equilibrium Constant (K)
The concentrations of 3, with initial concentration of 0.1 mM, and DTT, with initial concentration of 0.1 mM, in the phosphate buffer are calculated to be 0.0855 mM as follows: (1) The absorbance (A) is 0.956 at 0.1 mM concentration of 3 in deionized water. (2) The A of 3 is 0.817 in the phosphate buffer. (3) The concentrations of 3 and DTT in the buffer are calculated to be 0.0855 mM based on (1) and (2). From these concentrations, the approximate K is calculated as follows: K=[Adduct]/[3]×[DTT]=0.0145×10^−3/[…]=2.0×10^3 (Liters/mol).
Unfortunately, since the λmax of 4-8 was not observed due to the overlapping, we can't calculate the concentrations of the adducts of 4-8 by the same method as for 3. However, since we can speculate that the ε of the adducts of 4-8 is almost similar to that of the adduct of 2, we can calculate the concentrations of the adducts of 4-8 based on the A (0.227 at 0.0145 mM) of the adduct of […] and the A of the adducts of 4-8. For example, the concentration of the adduct of 5 is 0.0145×0.369 (A of the adduct of 5)/0.227=0.0235 (mM). Therefore, the concentrations of 5 and DTT are 0.0765 (mM/each). Thus, K of 5=0.0235×10^−3/0.0765×0.0765×10^−6=4.0×10^3 (Liters/mol). The K of 4 and 6-8 are also calculated using the A (0.227 at 0.0145 mM) of the adduct of 3 and the A of the adducts of 4 and 6-8, respectively.
Chemical reactivity of monocyclic, bicyclic, and tricyclic compounds 4-15 as Michael acceptors was evaluated using UV spectroscopy.
Michael reaction between ethynylcyanodienones with DTT give adducts IV (Scheme 11). Since adducts IV have different UV absorption spectra (λmax 330-380 nm) from those of the corresponding ethynylcyanodienones (λmax 230-320 nm), UV spectroscopy can clarify whether or not the Michael adducts are produced.^6
(§1) 1. UV Studies on Monocyclic and Bicyclic Compounds 4-9 with DTT Compounds 5-8 with DTT gave similar UV spectra to those of 3 (Taylor, S. K. et al. 1988). Compounds 5-8 have local maximum absorptions at 332-338 nm upon the addition of DTT (1 and 10 equiv) under dilute (0.1 mM of the compounds) and neutral aqueous conditions (pH 7.4 phosphate buffered saline-1% ethanol containing 1 mM KH2PO4, 5.6 mM Na2HPO4, and 154 mM NaCl) (Table 1 and FIG. 2). Also, these compounds react with a chloride anion (a much weaker nucleophile than a sulfhydryl group of DTT), which is contained in the buffer solution, to give Michael adducts whose local maximum absorptions are observed at 320-326 nm.
We have calculated approximate equilibrium constants (K) of these Michael reactions in the solutions of 5-8 with DTT (each initial concentration, 0.1 mM. See the calculation of the equilibrium constants in the Supporting Information). The values of K are approximately 1.0-4.2×10^3 (L/mol), implying that these additions are very strongly favored.
Tricyclic compounds 10-15 react with DTT to give the adducts whose local maximum absorptions are observed at 374-383 nm range (Table 1 and FIG. 2). […] Among phenanthrene derivatives, substitutents at C5 decrease the reactivity.

[2] = UV study of Michael adduct formation with chloride anion of the buffer (without DTT); type: physicochemical; conditions: 0.1 mM compound, phosphate buffer saline-1% ethanol (pH 7.4)
Procedure: as §1, with “nm. […]” for “nm.”

SMILES | EC (2-fold NQO1 activity) (NQO1) [µM] | IC50 (iNOS) [µM] | A (absorbance) With DTT (1 equiv) [1] | λmax With DTT (1 equiv) [1] [nm] | A (absorbance) With DTT (10 equiv) [1] | λmax With DTT (10 equiv) [1] | K (equilibrium constant) [1] [L/mol] | approximate equilibrium constant K of Michael reaction with DTT ([1]; each initial concentration 0.1 mM) [L/mol] | A (absorbance) Without DTT (With Cl^—) [2] | λmax Without DTT (With Cl^—) [2] [nm] | EC (2-fold NQO1 activity) (NQO1; Mus musculus, Hepa-1c1c7) [µM] | melting point [°C] | approximate equilibrium constant K (calculation) ([1]; initial 0.1 mM compound and 0.1 mM DTT, phosphate buffer) [L/mol] | magnitude of NQO1 induction at higher concentrations (NQO1)
CC1(C)CC[C@]2(C(=O)O)CC[C@]3(C)[C@H](C(=O)C=C4[C@@]5(C)C=C(C#N)C(=O)C(C)(C)[C@@H]5CC[C@]43C)[C@@H]2C1 [CDDO, reference compound] | 0.0023 | 0.023 | – | – | – | – | – | – | – | – | – | – | – | –
C#CC1(C#C)C=CC(=O)C(C#N)=C1 [Compound 4, 3,3-Diethynyl-6-oxocyclohexa-1,4-dienecarbonitrile] | – | 0.21 | 0.614 | 330 | 0.510 and 0.439 | 333 nm and 250 nm | 10600 | ~10600 | 0.635 | 328 | 0.18 | 110 to 111 | – | –
C#CC1(C=C)C=CC(=O)C(C#N)=C1 (stereo not drawn) [Compound 5, 3-Ethynyl-6-oxo-3-vinylcyclohexa-1,4-dienecarbonitrile] | – | 0.016 | 0.369 | 335 | 0.481 | 338 nm | 4000 | – | 0.197 | 326 | 0.02 | 76 to 77 | 4000 | –
C#CC1(CC)C=CC(=O)C(C#N)=C1 (stereo not drawn) [Compound 6, 3-Ethyl-3-ethynyl-6-oxocyclohexa-1,4-dienecarbonitrile] | – | – | 0.135 | 332 | 0.353 | 335 nm | 1000 | – | 0.036 | 320 | 0.042 | 73 to 75 | – | –
C#CC12C=C(C#N)C(=O)C=C1CCC2 (stereo not drawn) [Compound 7, 3a-Ethynyl-6-oxo-2,3,3a,6-tetrahydro-1H-indene-5-carbonitrile] | – | 0.16 | 0.281 | 333 | 0.355 | 337 nm | 2700 | – | 0.151 | 324 | 0.056 | 107 to 108 | – | induce NQO1 more effectively than monocyclic compounds 3-6
C#CC12C=C(C#N)C(=O)C=C1C(C)(C)CC2 (stereo not drawn) [Compound 8, 3a-Ethynyl-1,1-dimethyl-6-oxo-2,3,3a,6-tetrahydro-1H-indene-5-carbonitrile] | – | 0.2 | 0.376 | 333 | 0.472 | 337 nm | 4200 | – | 0.279 | 324 | 0.1 | – | – | –
C#CC1(C)C=C(C#N)C(=O)c2ccccc21 (stereo not drawn) [Compound 9, 4-Ethynyl-4-methyl-1-oxo-1,4-dihydronaphthalene-2-carbonitrile] | – | – | 0.848 | 331 | 0.872 | 333 nm | – | – | 0.831 | 321 | 0.22 | – | – | –
C#CC12C=C(C#N)C(=O)C=C1c1ccccc1CC2 (stereo not drawn) [Compound 10, 10a-Ethynyl-3-oxo-3,9,10,10a-tetrahydrophenanthrene-2-carbonitrile] | – | – | shoulder | 380 | 0.723 | 382 nm | – | – | – | – | 0.15 | 209.5 to 211 | – | induce NQO1 more effectively than monocyclic compounds 3-6
C#CC12C=C(C#N)C(=O)C=C1c1c(Cl)cccc1CC2 (stereo not drawn) [Compound 11, 5-Chloro-10a-ethynyl-3-oxo-3,9,10,10a-tetrahydrophenanthrene-2-carbonitrile] | – | – | shoulder | 380 | 0.262 | 380 nm | – | – | – | – | 0.9 | > 230 | – | induce NQO1 more effectively than monocyclic compounds 3-6
C#CC12C=C(C#N)C(=O)C=C1c1c(Br)cccc1CC2 (stereo not drawn) [Compound 12, 5-Bromo-10a-ethynyl-3-oxo-3,9,10,10a-tetrahydrophenanthrene-2-carbonitrile] | – | 0.65 | – | – | – | – | – | – | – | – | 1.3 | 202 to 205 | – | –
C#CC12C=C(C#N)C(=O)C=C1c1c(C)cccc1CC2 (stereo not drawn) [Compound 13, 10a-Ethynyl-5-methyl-3-oxo-3,9,10,10a-tetrahydrophenanthrene-2-carbonitrile] | – | 0.94 | – | – | 0.279 | 374 nm | – | – | – | – | 1.8 | 195.5 to 197 | – | –
C[S+]([O-])CCCCN=C=S (stereo not drawn) [Sulforaphane, reference compound] | – | 0.4 | – | – | – | – | – | – | – | – | 0.2 | – | – | –
